For the assay, the target named is HLA A*3001 (Homo sapiens, UniProt P04439, D140H/D185E/E176W/F33S/G80R/H175R/K168Q/R138E/R41S). Kind of assay: biochemical. Format: binding.

For 29 compounds, IC50 results are on record in publication PMC2248166, “Quantitative peptide binding motifs for 19 human and mouse MHC class I molecules derived using positional scanning combinatorial peptide libraries” (Immunome Research, 2008).

One may read the IC50 as the concentration that gives 50% inhibition.

Structures are written as SMILES. Where a SMILES comes first, the peptide text is derived from it.

Chain of HLA A*3001 (P04439 25-365 limits assumed, stated change not applied): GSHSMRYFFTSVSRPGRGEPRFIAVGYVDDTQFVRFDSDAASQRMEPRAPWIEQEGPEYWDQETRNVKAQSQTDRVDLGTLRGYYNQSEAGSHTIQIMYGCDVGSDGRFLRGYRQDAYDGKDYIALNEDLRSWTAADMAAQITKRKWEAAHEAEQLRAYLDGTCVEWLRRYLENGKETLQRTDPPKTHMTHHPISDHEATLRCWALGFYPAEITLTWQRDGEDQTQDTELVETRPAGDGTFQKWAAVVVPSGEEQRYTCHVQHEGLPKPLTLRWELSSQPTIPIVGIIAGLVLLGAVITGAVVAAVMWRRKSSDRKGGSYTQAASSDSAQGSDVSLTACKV

The compound `CSCC[C@H](N)C(=O)N[C@@H](CCCNC(=N)N)C(=O)N[C@@H](CCCNC(=N)N)C(=O)N[C@@H](CCC(=O)O)C(=O)N[C@@H](CCCNC(=N)N)C(=O)N[C@@H](C)C(=O)N[C@@H](C)C(=O)N[C@@H](Cc1ccc(O)cc1)C(=O)N[C@H](C(=O)O)C(C)C` [3102.0232] (H-MRRERAAYV-OH) displayed an IC50 of 22 nM. Next, `CC(C)[C@H](NC(=O)[C@H](CO)NC(=O)[C@@H](NC(=O)[C@H](Cc1ccc(O)cc1)NC(=O)[C@@H](NC(=O)[C@H](Cc1ccccc1)NC(=O)[C@H](CCCCN)NC(=O)[C@H](CO)NC(=O)[C@H](C)N)C(C)C)C(C)C)C(=O)O` [3102.0152] (H-ASKFVYVSV-OH): 3.1 nM. Next, `CC(C)C[C@H](NC(=O)[C@@H](NC(=O)[C@H](CS)NC(=O)[C@H](C)NC(=O)[C@H](Cc1ccccc1)NC(=O)[C@H](CCCCN)NC(=O)[C@H](CO)NC(=O)[C@@H](N)CO)C(C)C)C(=O)N[C@@H](CCCCN)C(=O)O` [3102.0265] (H-SSKFACVLK-OH): 9.9 nM; `CC[C@H](C)[C@H](NC(=O)[C@H](CC(N)=O)NC(=O)[C@@H](NC(=O)[C@@H](NC(=O)[C@H](Cc1ccccc1)NC(=O)[C@@H](NC(=O)[C@H](C)N)[C@@H](C)O)[C@@H](C)O)C(C)C)C(=O)N[C@@H](Cc1ccccc1)C(=O)N[C@@H](CCCCN)C(=O)O` [3102.0081] (H-ATFTVNIFK-OH): 3.1 nM; `CC[C@H](C)[C@H](NC(=O)[C@H](CCCCN)NC(=O)[C@H](C)NC(=O)CN)C(=O)NCC(=O)N[C@@H](CS)C(=O)N[C@H](C(=O)N[C@@H](CC(N)=O)C(=O)N[C@H](C(=O)O)C(C)C)[C@@H](C)CC` [3102.1347] (H-GAKIGCINV-OH): 9.1 nM. Next, `CC[C@H](C)[C@H](NC(=O)[C@H](CC(C)C)NC(=O)[C@H](CCCNC(=N)N)NC(=O)[C@H](CCC(N)=O)NC(=O)[C@H](CCCNC(=N)N)NC(=O)[C@H](Cc1ccc(O)cc1)NC(=O)[C@@H](N)CCCNC(=N)N)C(=O)N[C@@H](CO)C(=O)N[C@@H](CC(C)C)C(=O)O` [3102.0110] (H-RYRQRLISL-OH): 5.2 nM; `CC(C)[C@H](NC(=O)[C@@H](N)CO)C(=O)N[C@@H](CCCCN)C(=O)N[C@@H](CS)C(=O)N[C@@H](CCC(N)=O)C(=O)N[C@@H](CO)C(=O)N1CCC[C@H]1C(=O)N1CCC[C@H]1C(=O)N[C@@H](CO)C(=O)O` [3102.0135] (H-SVKCQSPPS-OH): 17 nM; `CC[C@H](C)[C@H](NC(=O)[C@@H](NC(=O)[C@H](CC(N)=O)NC(=O)[C@H](CCCCN)NC(=O)[C@H](CO)NC(=O)[C@@H](N)CCCNC(=N)N)[C@@H](C)O)C(=O)N[C@H](C(=O)N[C@H](C(=O)N[C@@H](C)C(=O)O)[C@@H](C)CC)[C@@H](C)CC` [3102.0089] (H-RSKNTIIIA-OH): 0.16 nM. In turn, `CC[C@H](C)[C@H](NC(=O)[C@@H](N)CCCCN)C(=O)N[C@@H](CCCNC(=N)N)C(=O)N1CCC[C@H]1C(=O)N[C@H](C(=O)N[C@@H](CCCNC(=N)N)C(=O)N[C@@H](CO)C(=O)N[C@H](C(=O)N[C@@H](Cc1ccc(O)cc1)C(=O)O)C(C)C)[C@@H](C)O` [3102.0206] (H-KIRPTRSVY-OH) yielded an IC50 of 7.2 nM. As for `CSCC[C@H](NC(=O)[C@H](CCC(=O)O)NC(=O)[C@H](CO)NC(=O)[C@H](CC(C)C)NC(=O)[C@H](CCCNC(=N)N)NC(=O)[C@@H](NC(=O)[C@@H](N)CCCCN)[C@@H](C)O)C(=O)N[C@@H](CC(C)C)C(=O)N[C@@H](CO)C(=O)O` [3102.0174] (H-KTRLSEMLS-OH), the figure is 0.45 nM.

Regarding `CC(C)C[C@H](NC(=O)[C@H](CO)NC(=O)[C@@H](N)CCCCN)C(=O)N[C@@H](Cc1ccc(O)cc1)C(=O)N[C@@H](CO)C(=O)N[C@@H](Cc1c[nH]cn1)C(=O)N[C@@H](CCC(N)=O)C(=O)N[C@@H](CC(C)C)C(=O)N[C@H](C(=O)O)C(C)C` [3102.0103] (H-KSLYSHQLV-OH), the IC50 is 12 nM.

Compound `CC[C@H](C)[C@H](NC(=O)[C@H](CCCCN)NC(=O)[C@H](CC(N)=O)NC(=O)[C@H](CC(N)=O)NC(=O)[C@H](CCCCN)NC(=O)[C@@H](NC(=O)[C@@H](N)CCSC)C(C)C)C(=O)N[C@@H](CCC(N)=O)C(=O)N[C@@H](CCCCN)C(=O)O` [3102.0137] (H-MVKNNKIQK-OH) came in with an IC50 of 12 nM. Turning to `CC[C@H](C)[C@H](NC(=O)[C@H](Cc1ccc(O)cc1)NC(=O)[C@H](CCC(N)=O)NC(=O)[C@H](Cc1ccc(O)cc1)NC(=O)[C@H](CCSC)NC(=O)[C@H](C)NC(=O)[C@H](C)N)C(=O)N[C@@H](Cc1ccccc1)C(=O)N[C@@H](CC(C)C)C(=O)O` [3102.1350] (H-AAMYQYIFL-OH), the IC50 was 7.5 nM.

Compound `CC[C@H](C)[C@H](NC(=O)[C@@H]1CCCN1C(=O)[C@H](CCCCN)NC(=O)[C@@H](NC(=O)[C@@H](N)CCCNC(=N)N)[C@@H](C)O)C(=O)N[C@@H](CO)C(=O)N[C@@H](CCSC)C(=O)N[C@@H](Cc1ccc(O)cc1)C(=O)N[C@@H](Cc1ccccc1)C(=O)O` [3102.0165] (H-RTKPISMYF-OH) returned an IC50 of 0.6 nM. Next, `CC[C@H](C)[C@H](NC(=O)[C@H](CC(N)=O)NC(=O)[C@H](CC(=O)O)NC(=O)[C@H](CO)NC(=O)[C@H](CCCNC(=N)N)NC(=O)[C@@H](NC(=O)[C@@H](N)CCCCN)[C@@H](C)CC)C(=O)N[C@@H](CCCCN)C(=O)N[C@@H](CCCCN)C(=O)O` [3102.0051] (H-KIRSDNIKK-OH): 12 nM. `CC[C@H](C)[C@H](NC(=O)[C@H](Cc1ccc(O)cc1)NC(=O)[C@@H](NC(=O)[C@H](CCCCN)NC(=O)[C@H](CCCCN)NC(=O)[C@H](Cc1ccccc1)NC(=O)[C@@H](N)CCCNC(=N)N)C(C)C)C(=O)N[C@@H](CC(C)C)C(=O)N[C@H](C(=O)O)C(C)C` [3102.0055] (H-RFKKVYILV-OH) yielded an IC50 of 13 nM.

In turn, `CC(C)C[C@H](N)C(=O)N[C@@H](C)C(=O)N[C@@H](CCCNC(=N)N)C(=O)N[C@@H](CCCNC(=N)N)C(=O)N1CCC[C@H]1C(=O)N[C@H](C(=O)N1CCC[C@H]1C(=O)N[C@@H](CCCCN)C(=O)N[C@@H](CCCCN)C(=O)O)[C@@H](C)O` [3102.0275] (H-LARRPTPKK-OH) yielded an IC50 of 10 nM. Next, `CC[C@H](C)[C@H](NC(=O)[C@H](CO)NC(=O)[C@H](CO)NC(=O)[C@H](CO)NC(=O)[C@H](CCCCN)NC(=O)[C@H](CCCNC(=N)N)NC(=O)[C@H](CO)NC(=O)CN)C(=O)N[C@@H](CC(C)C)C(=O)O` [3102.0276] (H-GSRKSSSIL-OH): 1.6 nM; `CC(C)C[C@H](NC(=O)[C@H](Cc1c[nH]c2ccccc12)NC(=O)[C@H](CCCCN)NC(=O)[C@@H](NC(=O)[C@@H](N)CCCCN)C(C)C)C(=O)N[C@@H](CCC(N)=O)C(=O)N[C@@H](CC(N)=O)C(=O)N[C@@H](CO)C(=O)N[C@H](C(=O)O)C(C)C` [3102.0194] (H-KVKWLQNSV-OH): 0.5 nM; `CC(C)C[C@H](NC(=O)[C@H](Cc1ccccc1)NC(=O)[C@@H](NC(=O)[C@H](Cc1ccc(O)cc1)NC(=O)[C@H](CCCNC(=N)N)NC(=O)[C@@H](NC(=O)[C@@H](N)CC(N)=O)C(C)C)C(C)C)C(=O)N[C@@H](Cc1ccc(O)cc1)C(=O)N[C@@H](CCCCN)C(=O)O` [3102.0198] (H-NVRYVFLYK-OH): 9.9 nM. Next, `CC[C@H](C)[C@H](NC(=O)[C@H](C)NC(=O)[C@H](Cc1c[nH]cn1)NC(=O)[C@H](CO)NC(=O)[C@@H](N)CCCCN)C(=O)N[C@@H](Cc1ccc(O)cc1)C(=O)N[C@@H](Cc1c[nH]c2ccccc12)C(=O)N[C@@H](CC(=O)O)C(=O)N[C@@H](CCCCN)C(=O)O` [3102.0046] (H-KSHAIYWDK-OH): 11 nM; `CC(C)C[C@H](NC(=O)[C@H](CC(N)=O)NC(=O)[C@H](CCC(N)=O)NC(=O)[C@H](CC(N)=O)NC(=O)[C@H](CO)NC(=O)[C@H](CC(C)C)NC(=O)[C@H](Cc1c[nH]cn1)NC(=O)[C@@H](NC(=O)[C@@H](N)Cc1c[nH]cn1)[C@@H](C)O)C(=O)O` [3102.0108] (H-HTHLSNQNL-OH): 5.8 nM.

`CC[C@H](C)[C@H](NC(=O)[C@H](CC(C)C)NC(=O)[C@@H](NC(=O)[C@@H](NC(=O)[C@H](CCCNC(=N)N)NC(=O)[C@H](Cc1ccccc1)NC(=O)[C@@H](N)CCCNC(=N)N)[C@@H](C)O)C(C)C)C(=O)N[C@@H](CO)C(=O)N[C@@H](CCCCN)C(=O)O` [3102.0004] (H-RFRTVLISK-OH) had an IC50 of 4.6 nM. As for `CC[C@H](C)[C@H](NC(=O)[C@H](CCC(N)=O)NC(=O)[C@H](CCC(=O)O)NC(=O)[C@H](CCCNC(=N)N)NC(=O)[C@H](C)NC(=O)[C@@H](N)CCCNC(=N)N)C(=O)N[C@@H](CO)C(=O)N[C@@H](CC(N)=O)C(=O)N[C@@H](CC(C)C)C(=O)O` [3102.0237] (H-RAREQISNL-OH), the figure is 2.7 nM. With `CC[C@H](C)[C@H](NC(=O)[C@H](Cc1ccc(O)cc1)NC(=O)[C@H](C)NC(=O)[C@H](C)NC(=O)[C@H](Cc1c[nH]cn1)NC(=O)[C@H](CO)NC(=O)[C@H](CCCCN)NC(=O)[C@H](CO)NC(=O)[C@@H](N)CCSC)C(=O)O` [3102.0207] (H-MSKSHAAYI-OH), the IC50 worked out at 0.23 nM.

`CC(C)C[C@H](NC(=O)[C@H](Cc1ccccc1)NC(=O)[C@H](CC(N)=O)NC(=O)[C@H](Cc1ccccc1)NC(=O)[C@@H]1CCCN1C(=O)[C@H](C)NC(=O)[C@H](CC(C)C)NC(=O)[C@@H](NC(=O)[C@@H](N)CCCCN)[C@@H](C)O)C(=O)O` [3102.0030] (H-KTLAPFNFL-OH) returned an IC50 of 15 nM. As for `CC[C@H](C)[C@H](NC(=O)[C@H](CO)NC(=O)[C@@H](NC(=O)[C@H](CCCCN)NC(=O)[C@H](CCCCN)NC(=O)[C@H](CCC(N)=O)NC(=O)[C@@H](N)CCCNC(=N)N)[C@@H](C)CC)C(=O)N[C@@H](CC(C)C)C(=O)N[C@H](C(=O)O)C(C)C` [3102.0196] (H-RQKKISILV-OH), the figure is 0.36 nM. For `C[C@@H](O)[C@H](N)C(=O)N[C@H](C(=O)N[C@@H](CCCCN)C(=O)N[C@@H](CC(N)=O)C(=O)NCC(=O)N[C@@H](CCC(N)=O)C(=O)N1CCC[C@H]1C(=O)N[C@@H](CCCNC(=N)N)C(=O)N[C@@H](CCCCN)C(=O)O)[C@@H](C)O` [3102.0252] (H-TTKNGQPRK-OH), the half-inhibitory concentration (IC50) was 0.23 nM. As for `CC[C@H](C)[C@H](NC(=O)[C@@H](N)CO)C(=O)N[C@@H](CCCNC(=N)N)C(=O)N[C@@H](CCCNC(=N)N)C(=O)N[C@@H](CC(N)=O)C(=O)N[C@@H](CC(C)C)C(=O)N[C@@H](C)C(=O)N[C@@H](CC(C)C)C(=O)N[C@@H](CCCCN)C(=O)O` [3102.0157] (H-SIRRNLALK-OH), the figure is 12 nM.
